Measurements published in ChEMBL document CHEMBL3407452, “Linear and branched alkyl-esters and amides of gallic acid and other (mono-, di- and tri-) hydroxy benzoyl derivatives as promising anti-HCV inhibitors” (Eur J Med Chem, 2015).
The source made the active and inactive calls. The rule behind the calls is not given here.

Tested on: Influenza A virus
Assay: Antiviral activity against influenza A virus (H1N1)
Type: functional, organism-based
Settings: not given

Question: For O=C(NCCCCCCCCNC(=O)c1cc(O)c(O)c(O)c1)c1cc(O)c(O)c(O)c1, which Activity is on record?
Answer: inactive

Question: For O=C(NCCN(CCNC(=O)c1cc(O)c(O)c(O)c1)C(=O)c1cc(O)c(O)c(O)c1)c1cc(O)c(O)c(O)c1, which Activity is on record?
Answer: inactive

Tested on: Influenza A virus H3N2
Assay: Antiviral activity against influenza A virus H3N2
Type: functional, organism-based
Settings: not given

Question: With O=C(NCCCCCCCCNC(=O)c1cc(O)c(O)c(O)c1)c1cc(O)c(O)c(O)c1 as the molecule, how does the Activity read?
Answer: inactive

Question: Which Activity does the source give for O=C(NCCN(CCNC(=O)c1cc(O)c(O)c(O)c1)C(=O)c1cc(O)c(O)c(O)c1)c1cc(O)c(O)c(O)c1 here?
Answer: inactive

Tested on: not listed separately
Assay: Cytotoxicity against human CEM cells assessed as inhibition of cell proliferation
Type: cell-based
Settings: CEM cells (CCRF-CEM)

Question: For O=C(NCCCCCCCCNC(=O)c1cc(O)c(O)c(O)c1)c1cc(O)c(O)c(O)c1, which CC50 is on record?
Answer: 51 µM

Question: Which CC50 does the source give for O=C(NCCN(CCNC(=O)c1cc(O)c(O)c(O)c1)C(=O)c1cc(O)c(O)c(O)c1)c1cc(O)c(O)c(O)c1 here?
Answer: 34 µM

Tested on: Hepatitis C virus
Assay: Antiviral activity against HCV genotype 1b I389luc-ubi-neo/NS3-3'/5.1 replicons infected in human Huh5-2 HCV subgenomic replicon-containing cells assessed as reduction in virus replication after 3 days by luciferase reporter gene assay
Type: functional, Hepacivirus hominis
Settings: Hepatitis C virus, genotype 1b, Huh-5-2, 72 h

Question: For O=C(NCCCCCCCCNC(=O)c1cc(O)c(O)c(O)c1)c1cc(O)c(O)c(O)c1, which EC90 is on record?
Answer: > 50 µM

Same assay, conditions: Hepatitis C virus, genotype 1b, Huh-5-2, 72 h; read-out: EC50

Question: For CCC[C@H](NC(=O)[C@@H]1[C@H]2CCC[C@H]2CN1C(=O)[C@@H](NC(=O)[C@@H](NC(=O)c1cnccn1)C1CCCCC1)C(C)(C)C)C(=O)C(=O)NC1CC1 [TELAPREVIR], which EC50 is on record?
Answer: 2.8 µM

Question: For O=C(NCCCCCCCCNC(=O)c1cc(O)c(O)c(O)c1)c1cc(O)c(O)c(O)c1, which EC50 is on record?
Answer: 23 µM

Question: With COc1ccc(C(=O)NCCCCCCCCCCCCNC(=O)c2ccc(OC)c(OC)c2OC)c(OC)c1OC as the molecule, how does the EC50 read?
Answer: > 3.5 µM

Tested on: not listed separately
Assay: Cytotoxicity against human Huh5-2 cells after 72 hrs by MTS assay
Type: cell-based, Huh-5-2
Settings: not given

Question: Which CC50 at 72 h does the source give for CCC[C@H](NC(=O)[C@@H]1[C@H]2CCC[C@H]2CN1C(=O)[C@@H](NC(=O)[C@@H](NC(=O)c1cnccn1)C1CCCCC1)C(C)(C)C)C(=O)C(=O)NC1CC1 [TELAPREVIR] here?
Answer: 47 µM

Question: With O=C(NCCCCCCCCNC(=O)c1cc(O)c(O)c(O)c1)c1cc(O)c(O)c(O)c1 as the molecule, how does the CC50 at 72 h read?
Answer: > 50 µM

Question: For COc1ccc(C(=O)NCCCCCCCCCCCCNC(=O)c2ccc(OC)c(OC)c2OC)c(OC)c1OC, which CC50 at 72 h is on record?
Answer: 5.4 µM

Tested on: Vesicular stomatitis virus
Assay: Antiviral activity against vesicular stomatitis virus
Type: functional, organism-based
Settings: not given

Question: Which Activity does the source give for O=C(NCCCCCCCCNC(=O)c1cc(O)c(O)c(O)c1)c1cc(O)c(O)c(O)c1 here?
Answer: inactive

Question: With O=C(NCCN(CCNC(=O)c1cc(O)c(O)c(O)c1)C(=O)c1cc(O)c(O)c(O)c1)c1cc(O)c(O)c(O)c1 as the molecule, how does the Activity read?
Answer: inactive

Tested on: Human immunodeficiency virus 1
Assay: Antiviral activity against HIV1 3B infected in human CEM cells assessed as reduction in virus-induced cytopathicity after 4 to 5 days by microscopy based syncytium cell formation assay
Type: functional, organism-based, CCRF-CEM
Settings: Human immunodeficiency virus 1, 3B, CCRF-CEM; read-out: EC50

Question: Which EC50 does the source give for O=C(NCCCCCCCCNC(=O)c1cc(O)c(O)c(O)c1)c1cc(O)c(O)c(O)c1 here?
Answer: > 10 µM

Question: Which EC50 does the source give for O=C(NCCN(CCNC(=O)c1cc(O)c(O)c(O)c1)C(=O)c1cc(O)c(O)c(O)c1)c1cc(O)c(O)c(O)c1 here?
Answer: > 10 µM

Tested on: Human immunodeficiency virus 2
Assay: Antiviral activity against HIV2 ROD infected in human CEM cells assessed as reduction in virus-induced cytopathicity after 4 to 5 days by microscopy based syncytium cell formation assay
Type: functional, organism-based, ISOLATE ROD, CCRF-CEM
Settings: Human immunodeficiency virus 2, ISOLATE ROD, CCRF-CEM; read-out: EC50

Question: With O=C(NCCN(CCNC(=O)c1cc(O)c(O)c(O)c1)C(=O)c1cc(O)c(O)c(O)c1)c1cc(O)c(O)c(O)c1 as the molecule, how does the EC50 read?
Answer: > 10 µM

Tested on: Felid alphaherpesvirus 1
Assay: Antiviral activity against feline herpesvirus
Type: functional, organism-based
Settings: not given

Question: With O=C(NCCCCCCCCNC(=O)c1cc(O)c(O)c(O)c1)c1cc(O)c(O)c(O)c1 as the molecule, how does the Activity read?
Answer: inactive

Question: Which Activity does the source give for O=C(NCCN(CCNC(=O)c1cc(O)c(O)c(O)c1)C(=O)c1cc(O)c(O)c(O)c1)c1cc(O)c(O)c(O)c1 here?
Answer: inactive

Tested on: Coxsackievirus B4
Assay: Antiviral activity against human coxsackievirus B4
Type: functional, organism-based
Settings: not given

Question: With O=C(NCCCCCCCCNC(=O)c1cc(O)c(O)c(O)c1)c1cc(O)c(O)c(O)c1 as the molecule, how does the Activity read?
Answer: inactive

Question: Which Activity does the source give for O=C(NCCN(CCNC(=O)c1cc(O)c(O)c(O)c1)C(=O)c1cc(O)c(O)c(O)c1)c1cc(O)c(O)c(O)c1 here?
Answer: inactive

Tested on: Vaccinia virus
Assay: Antiviral activity against vaccinia virus
Type: functional, organism-based
Settings: Orthopoxvirus vaccinia

Question: For O=C(NCCCCCCCCNC(=O)c1cc(O)c(O)c(O)c1)c1cc(O)c(O)c(O)c1, which Activity is on record?
Answer: inactive

Question: With O=C(NCCN(CCNC(=O)c1cc(O)c(O)c(O)c1)C(=O)c1cc(O)c(O)c(O)c1)c1cc(O)c(O)c(O)c1 as the molecule, how does the Activity read?
Answer: inactive

Tested on: Chikungunya virus
Assay: Antiviral activity against chikungunya virus
Type: functional
Settings: not given

Question: With O=C(NCCCCCCCCNC(=O)c1cc(O)c(O)c(O)c1)c1cc(O)c(O)c(O)c1 as the molecule, how does the Activity read?
Answer: inactive

Question: With O=C(NCCN(CCNC(=O)c1cc(O)c(O)c(O)c1)C(=O)c1cc(O)c(O)c(O)c1)c1cc(O)c(O)c(O)c1 as the molecule, how does the Activity read?
Answer: inactive

Tested on: Punta Toro virus
Assay: Antiviral activity against punta toro virus
Type: functional, organism-based
Settings: not given

Question: For O=C(NCCCCCCCCNC(=O)c1cc(O)c(O)c(O)c1)c1cc(O)c(O)c(O)c1, which Activity is on record?
Answer: inactive

Question: For O=C(NCCN(CCNC(=O)c1cc(O)c(O)c(O)c1)C(=O)c1cc(O)c(O)c(O)c1)c1cc(O)c(O)c(O)c1, which Activity is on record?
Answer: inactive

Tested on: Respiratory syncytial virus
Assay: Antiviral activity against RSV
Type: functional, organism-based
Settings: not given

Question: For O=C(NCCCCCCCCNC(=O)c1cc(O)c(O)c(O)c1)c1cc(O)c(O)c(O)c1, which Activity is on record?
Answer: inactive

Question: For O=C(NCCN(CCNC(=O)c1cc(O)c(O)c(O)c1)C(=O)c1cc(O)c(O)c(O)c1)c1cc(O)c(O)c(O)c1, which Activity is on record?
Answer: inactive

Tested on: Reovirus sp.
Assay: Antiviral activity against reovirus
Type: functional, organism-based
Settings: not given

Question: With O=C(NCCCCCCCCNC(=O)c1cc(O)c(O)c(O)c1)c1cc(O)c(O)c(O)c1 as the molecule, how does the Activity read?
Answer: inactive

Question: For O=C(NCCN(CCNC(=O)c1cc(O)c(O)c(O)c1)C(=O)c1cc(O)c(O)c(O)c1)c1cc(O)c(O)c(O)c1, which Activity is on record?
Answer: inactive

Tested on: Sindbis virus
Assay: Antiviral activity against sindbis virus
Type: functional, organism-based
Settings: not given

Question: For O=C(NCCCCCCCCNC(=O)c1cc(O)c(O)c(O)c1)c1cc(O)c(O)c(O)c1, which Activity is on record?
Answer: inactive

Question: For O=C(NCCN(CCNC(=O)c1cc(O)c(O)c(O)c1)C(=O)c1cc(O)c(O)c(O)c1)c1cc(O)c(O)c(O)c1, which Activity is on record?
Answer: inactive

Tested on: Feline coronavirus
Assay: Antiviral activity against feline coronavirus
Type: functional, organism-based
Settings: not given

Question: With O=C(NCCCCCCCCNC(=O)c1cc(O)c(O)c(O)c1)c1cc(O)c(O)c(O)c1 as the molecule, how does the Activity read?
Answer: inactive

Question: For O=C(NCCN(CCNC(=O)c1cc(O)c(O)c(O)c1)C(=O)c1cc(O)c(O)c(O)c1)c1cc(O)c(O)c(O)c1, which Activity is on record?
Answer: inactive

Tested on: Human respirovirus 3
Assay: Antiviral activity against human parainfluenza virus 3
Type: functional, organism-based
Settings: not given

Question: Which Activity does the source give for O=C(NCCCCCCCCNC(=O)c1cc(O)c(O)c(O)c1)c1cc(O)c(O)c(O)c1 here?
Answer: inactive

Question: With O=C(NCCN(CCNC(=O)c1cc(O)c(O)c(O)c1)C(=O)c1cc(O)c(O)c(O)c1)c1cc(O)c(O)c(O)c1 as the molecule, how does the Activity read?
Answer: inactive
